Data reported in US10765659B2, “Potentiated tulathromycin” (SEPTEOS, priority 2016, dated 2020).
Where two headings read alike, the source gives them in different places.

What was measured:
[1] = system: Actinobacillus pleuropneumoniae; assay: MIC measurement in solid agar medium (CLSI); format: cell-based
Method: (§1) “MIC” means “minimal inhibitory concentration”, which is the lowest concentration of substance at which microbial growth is no longer observed after 18 to 24 hours of contact under conditions favourable to microbial growth.
(§2) The minimum inhibitory concentration measurement tests are performed in a solid agar medium according to current international standards (CLSI standards M7-A9 January 12): dispersion of the compounds to be tested in Mueller Hinton agar. An adaptation relating to the hydrophobicity of the compounds and compositions is however necessary to disperse them in the medium: the compounds are diluted in a solvent. The compounds and compositions incorporated in the agar may be first diluted in one or more solvents (Tween® 80 diluted in water, Tween@ 80 diluted in propylene, DMSO diluted in water). The medium may be cation-adjusted. The strains are deposited on the surface of the agar with a Steers apparatus. In the examples, various methods for dissolving the products are tested in parallel to circumvent problems related to the water/solvent distribution coefficient of the molecules (antimicrobial and potentiator) as the bacteria grow only in the aqueous phase. The technical constraint will not affect the in vivo tests. The same dilution methods can be used in liquid media (microplates and tubes). The same methodology is used with fungi.
(§3) MIC measurement: The minimum inhibitory concentration measurement tests are performed in solid agar medium according to current international standards (CLSI standards), according to the protocol defined above. The compounds and compositions incorporated in the agar may be first diluted in one or more solvents (ethanol, or DMSO diluted in water).

E. coli = assay: MIC measurement in solid agar medium (CLSI); format: cell-based
Method: as §1, §2, §3

Enterococcus = assay: MIC measurement in solid agar medium (CLSI); format: cell-based
Method: as §1, §2, §3

Staphylococcus [2] = assay: MIC measurement in solid agar medium (CLSI); format: cell-based
Method: as §1, §2, §3

Streptococcus suis = assay: MIC measurement in solid agar medium (CLSI); format: cell-based
Method: as §1, §2, §3

[3] = system: strain 13043 (Actinobacillus pleuropneumoniae); assay: Growth test / bactericidal action test in liquid medium; format: cell-based; details: strain 13043, DMSO, tulathromycin at 16 times its MIC, cineole at 1 mg/L
Method: (§4) Growth tests are performed in liquid medium with prior dispersion of the antibiotic booster in a suitable solvent (here DMSO).
(§5) Bacterial growth kinetics are measured in the presence of tulathromycin (at a concentration of 4 or 16 times its MIC); tulathromycin (at a concentration of 4 or 16 times its MIC) and 1,8-cineole at a mass ratio of 1:1; and tulathromycin (at a concentration of 4 or 16 times its MIC) and 1 mg of 1,8-cineole.
2 Growth Test on Strain 13043 (Actinobactllus Pleuropneumonlae) […]
diamond: control (bacteria alone in DMSO) square: tulathromycin diluted in DMSO at a concentration of 16 times its MIC triangle: tulathromycin and cineole, diluted in DMSO, tulathromycin is at a concentration of 16 times its MIC, cineole at 1 mg/L
Cross (x): cineole control, at 1 mg/L

Staphylococcus [4] = assay: Resistance test: resistant mutant colonies on Mueller Hinton plate; format: cell-based
Method: One hundred microlitres of a Mueller Hinton broth culture of the strain to be studied (heavy inoculum>10^10 CFU/mL) is spread on a Mueller Hinton plate containing an oil concentration equal to 0.5/1/2/4 times the MIC of tulathromycin. After 48 hours of incubation, the presence or absence of colonies likely to be resistant mutants are observed.

[5] = cat; cited from earlier work
[6] = rat; cited from earlier work
strain 13120 (E. coli) = assay: Growth test / bactericidal action test in liquid medium; format: cell-based; details: strain 13120, DMSO, tulathromycin at 4 times its MIC, cineole at mass ratio 1:1 or 1 mg/L
Method: as §4, §5
1 Growth Test on Strain 13120 (Genus E. coli) […]
diamond: control (bacteria alone in DMSO) square: tulathromycin diluted in DMSO at a concentration of 4 times its MIC triangle: tulathromycin and cineole, diluted in DMSO, tulathromycin is at a concentration of 4 times its MIC, the tulathromycin/cineole mass ratio is 1:1 Cross (x): tulathromycin and cineole, diluted in DMSO, tulathromycin is at a concentration of 4 times its MIC, cineole at 1 mg/L

[7] = system: microorganisms grown in planktonic and biofilm cultures; details: Hendry et al., J Antimicrob Chemother 2009; cited from earlier work

## CCCNC[C@]1(O)[C@H](C)O[C@@H](O[C@H]2[C@H](C)[C@@H](O[C@@H]3O[C@H](C)C[C@H](N(C)C)[C@H]3O)[C@](C)(O)C[C@@H](C)CN[C@H](C)[C@@H](O)[C@](C)(O)[C@@H](CC)OC(=O)[C@@H]2C)C[C@@]1(C)OC [ATB]
[1]; strain 13012, DMSO
  MIC: 2 µg/mL
[1]; strain 13012, EtOH
  MIC: 2 µg/mL
[1]; strain 13030, DMSO
  MIC: 0.5 µg/mL
[1]; strain 13030, EtOH
  MIC: 0.5 µg/mL
[1]; strain 13032, DMSO
  MIC: 0.5 µg/mL
[1]; strain 13032, EtOH
  MIC: 0.5 µg/mL
[1]; strain 13041, DMSO
  MIC: 0.5 µg/mL
[1]; strain 13041, EtOH
  MIC: 0.5 µg/mL
[1]; strain 13042, DMSO
  MIC: 0.5 µg/mL
[1]; strain 13042, EtOH
  MIC: 0.6 µg/mL
[1]; strain 13043, DMSO
  MIC: 0.5 µg/mL
[1]; strain 13043, EtOH
  MIC: 0.6 µg/mL
[1]; strain 13043, value used for growth test
  MIC of tulathromycin: 0.5 mg
[1]; strain 13045, DMSO
  MIC: 0.5 µg/mL
[1]; strain 13045, EtOH
  MIC: 0.6 µg/mL
E. coli; strain 13120, DMSO
  MIC: 2 µg/mL
E. coli; strain 13120, EtOH
  MIC: 2.7 µg/mL
E. coli; strain 13120, value used for growth test
  MIC of tulathromycin: 2 µg/mL
E. coli; strain 13121, DMSO
  MIC: 2 µg/mL
E. coli; strain 13121, EtOH
  MIC: 2.7 µg/mL
E. coli; strain 13122, DMSO
  MIC: 2 µg/mL
E. coli; strain 13122, EtOH
  MIC: 2 µg/mL
E. coli; strain 13123, DMSO
  MIC: 2 µg/mL
E. coli; strain 13123, EtOH
  MIC: 2 µg/mL
E. coli; strain 13124, DMSO
  MIC: 1.5 µg/mL
E. coli; strain 13124, EtOH
  MIC: 2 µg/mL
E. coli; strain 13125, DMSO
  MIC: 1.5 µg/mL
E. coli; strain 13125, EtOH
  MIC: 1.5 µg/mL
E. coli; strain 13126, DMSO
  MIC: 2 µg/mL
E. coli; strain 13126, EtOH
  MIC: 2 µg/mL
E. coli; strain 13128, DMSO
  MIC: 2 µg/mL
E. coli; strain 13128, EtOH
  MIC: 2 µg/mL
E. coli; strain 13129, DMSO
  MIC: 2.7 µg/mL
E. coli; strain 13129, EtOH
  MIC: 3.6 µg/mL
E. coli; strain 13130, DMSO
  MIC: 2 µg/mL
E. coli; strain 13130, EtOH
  MIC: 3.6 µg/mL
E. coli; strain 13131, DMSO
  MIC: 1.5 µg/mL
E. coli; strain 13131, EtOH
  MIC: 1.5 µg/mL
E. coli; strain 13132, DMSO
  MIC: 2 µg/mL
E. coli; strain 13132, EtOH
  MIC: 2.7 µg/mL
E. coli; strain 13133, DMSO
  MIC: 1.5 µg/mL
E. coli; strain 13133, EtOH
  MIC: 2 µg/mL
E. coli; strain 13134, DMSO
  MIC: 1.5 µg/mL
E. coli; strain 13134, EtOH
  MIC: 1.5 µg/mL
E. coli; strain 13170, DMSO
  MIC: 1.5 µg/mL
E. coli; strain 13170, EtOH
  MIC: 2 µg/mL
E. coli; strain 13171, DMSO
  MIC: 2.7 µg/mL
E. coli; strain 13171, EtOH
  MIC: 3.6 µg/mL
E. coli; strain 13172, DMSO
  MIC: 1.5 µg/mL
E. coli; strain 13172, EtOH
  MIC: 1.5 µg/mL
E. coli; strain 13173, DMSO
  MIC: 1.5 µg/mL
E. coli; strain 13173, EtOH
  MIC: 1.5 µg/mL
E. coli; strain 13174, DMSO
  MIC: 2 µg/mL
E. coli; strain 13174, EtOH
  MIC: 2 µg/mL
E. coli; strain 13175, DMSO
  MIC: 2 µg/mL
E. coli; strain 13175, EtOH
  MIC: 3.6 µg/mL
E. coli; strain Q54IE2, EtOH
  MIC: 0.8 µg/mL
E. coli; strain Q96CEB, EtOH
  MIC: 1.9 µg/mL
Enterococcus; Enterococcus strain without reference (Table 3, r6), EtOH
  MIC: 0.9 µg/mL
Enterococcus; Enterococcus strain without reference (Table 3, r7), EtOH
  MIC: 1.7 µg/mL
Enterococcus; strain 8152, EtOH
  MIC: 1 µg/mL
Enterococcus; strain 8153, EtOH
  MIC: 1.42 µg/mL
Staphylococcus [2]; strain 8146, EtOH
  MIC: 0.45 µg/mL
Staphylococcus [2]; strain 8147, EtOH
  MIC: 0.45 µg/mL
Staphylococcus [2]; strain 8148, EtOH
  MIC: 0.45 µg/mL
Staphylococcus [2]; strain 8149, EtOH
  MIC: 0.45 µg/mL
Staphylococcus [2]; strain 8238, EtOH
  MIC: 0.45 µg/mL
Staphylococcus [2]; strain 12216, EtOH
  MIC: 2.53 µg/mL
Staphylococcus [2]; strain 13218, EtOH
  MIC: 1.07 µg/mL
Staphylococcus [2]; strain 13221, EtOH
  MIC: 1.07 µg/mL
Streptococcus suis; strain 13092, DMSO
  MIC: 1.1 µg/mL
Streptococcus suis; strain 13092, EtOH
  MIC: 1.1 µg/mL
[3]
  Bacterial growth kinetics / number of bacteria (FIG. 2): bacteriostatic
Staphylococcus [4]; S. aureus (strain 8147), summary of Table 4
  Development of mutants: countless mutants
Staphylococcus [4]; strain 8146, ethanol solvent, 0.5 times the MIC of tulathromycin
  Colonies likely to be resistant mutants after 48 hours: overgrown
Staphylococcus [4]; strain 8146, ethanol solvent, 1 times the MIC of tulathromycin
  Colonies likely to be resistant mutants after 48 hours: overgrown
Staphylococcus [4]; strain 8146, ethanol solvent, 2 times the MIC of tulathromycin
  Colonies likely to be resistant mutants after 48 hours: overgrown
Staphylococcus [4]; strain 8146, ethanol solvent, 4 times the MIC of tulathromycin
  Colonies likely to be resistant mutants after 48 hours: 0
Staphylococcus [4]; strain 8147, ethanol solvent, 0.5 times the MIC of tulathromycin
  Colonies likely to be resistant mutants after 48 hours: overgrown
Staphylococcus [4]; strain 8147, ethanol solvent, 1 times the MIC of tulathromycin
  Colonies likely to be resistant mutants after 48 hours: overgrown
Staphylococcus [4]; strain 8147, ethanol solvent, 2 times the MIC of tulathromycin
  Colonies likely to be resistant mutants after 48 hours: overgrown
Staphylococcus [4]; strain 8147, ethanol solvent, 4 times the MIC of tulathromycin
  Colonies likely to be resistant mutants after 48 hours: overgrown

## Cc1ccc(C(C)C)cc1O [carvacrol]
[5]
  lowest oral lethal dose: 100 mg/kg
[6]
  lowest oral lethal dose: 100 mg/kg

## CC12CCC(CC1)C(C)(C)O2 [cineole, 1,8-cineole]
Strain 13120 (E. coli)
  Bacterial growth kinetics / bactericidal action (FIG. 1): increase the bactericidal action of tulathromycin
[3]
  Bacterial growth kinetics / number of bacteria (FIG. 2): significantly decrease the number of bacteria
Staphylococcus [4]; strain 8146, cineole added to tulathromycin, summary of Table 5
  Development of mutants: decreases the development of mutants
[7]
  MIC of cineole in the publication: 8000 to 64000 µg/mL
